For test [1], the target named is T1, Apoptotic protease-activating factor 1 (Homo sapiens, UniProt O14727).
T1 sequence (O14727 whole entry): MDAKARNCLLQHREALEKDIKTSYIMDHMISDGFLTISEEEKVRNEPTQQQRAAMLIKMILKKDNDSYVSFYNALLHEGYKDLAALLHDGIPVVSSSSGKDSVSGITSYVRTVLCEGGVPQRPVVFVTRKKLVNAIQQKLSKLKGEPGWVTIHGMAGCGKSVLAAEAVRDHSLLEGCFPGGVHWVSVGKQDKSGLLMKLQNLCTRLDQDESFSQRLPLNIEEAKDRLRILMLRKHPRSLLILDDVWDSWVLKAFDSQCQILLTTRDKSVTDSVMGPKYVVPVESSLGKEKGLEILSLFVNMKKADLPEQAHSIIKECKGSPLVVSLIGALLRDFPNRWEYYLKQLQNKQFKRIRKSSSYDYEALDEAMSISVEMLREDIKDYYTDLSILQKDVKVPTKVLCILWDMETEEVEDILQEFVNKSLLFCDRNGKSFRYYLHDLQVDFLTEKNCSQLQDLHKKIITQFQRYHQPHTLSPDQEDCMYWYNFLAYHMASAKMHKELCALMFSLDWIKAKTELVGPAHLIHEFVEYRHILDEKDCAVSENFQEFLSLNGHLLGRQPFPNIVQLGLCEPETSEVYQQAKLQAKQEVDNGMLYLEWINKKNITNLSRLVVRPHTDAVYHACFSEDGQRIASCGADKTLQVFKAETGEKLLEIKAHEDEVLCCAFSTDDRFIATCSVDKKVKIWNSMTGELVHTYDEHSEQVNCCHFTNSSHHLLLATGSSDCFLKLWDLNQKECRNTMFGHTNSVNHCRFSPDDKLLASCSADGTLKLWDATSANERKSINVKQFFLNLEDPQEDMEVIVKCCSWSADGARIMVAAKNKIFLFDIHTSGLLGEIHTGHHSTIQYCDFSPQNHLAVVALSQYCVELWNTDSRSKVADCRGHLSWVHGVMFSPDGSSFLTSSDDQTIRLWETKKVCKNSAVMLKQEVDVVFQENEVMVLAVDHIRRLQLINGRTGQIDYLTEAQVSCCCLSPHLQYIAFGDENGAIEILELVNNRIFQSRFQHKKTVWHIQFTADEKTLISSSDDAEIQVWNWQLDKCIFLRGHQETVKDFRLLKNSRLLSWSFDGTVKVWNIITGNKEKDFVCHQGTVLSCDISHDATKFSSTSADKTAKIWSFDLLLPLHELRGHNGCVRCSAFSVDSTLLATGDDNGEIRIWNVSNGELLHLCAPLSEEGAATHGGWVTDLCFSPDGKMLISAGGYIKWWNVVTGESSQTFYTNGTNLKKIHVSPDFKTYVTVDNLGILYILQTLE
Briefly: SAR analysis of small molecule inhibitors of Apaf-1 in a Fluorescent assay. Type of test: functional. To be noted: read-out: IC50_Mean.

Test [2] addresses T2, Sentrin-specific protease 8 (Homo sapiens, UniProt Q96LD8).
T2 sequence (Q96LD8 whole entry): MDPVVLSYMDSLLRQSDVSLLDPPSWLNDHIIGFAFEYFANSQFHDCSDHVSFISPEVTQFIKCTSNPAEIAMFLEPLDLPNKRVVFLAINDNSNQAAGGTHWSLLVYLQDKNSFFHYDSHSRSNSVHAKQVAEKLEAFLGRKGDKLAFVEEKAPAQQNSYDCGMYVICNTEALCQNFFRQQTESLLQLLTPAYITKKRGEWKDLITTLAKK
The format is functional.

Test [3] in a line: mitochondrial function rescue without frataxin homolog – Friedreich's ataxia, plus single-dose screen, dose response (AID 1465).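 Further: yeast depleted of Yfh1p frataxin homolog grown on glycerol needing respiration; WST-1 tetrazolium dye reduction as measure of cellular dehydrogenase metabolic activity.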 The format is functional.
For the next test, the target named is Mu-type opioid receptor (Homo sapiens, UniProt P35372). The test is described as follows: HTS Image-Based Screen for Agonists of the MOR Receptor. [Related pubchem assays (depositor defined):AID1777, AID1785, AID1786, AID2133]. Type of test: functional.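 Further: imaging of beta-arrestin GFP recruitment into spots after receptor activation.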
Sequence of Mu-type opioid receptor (P35372 whole entry): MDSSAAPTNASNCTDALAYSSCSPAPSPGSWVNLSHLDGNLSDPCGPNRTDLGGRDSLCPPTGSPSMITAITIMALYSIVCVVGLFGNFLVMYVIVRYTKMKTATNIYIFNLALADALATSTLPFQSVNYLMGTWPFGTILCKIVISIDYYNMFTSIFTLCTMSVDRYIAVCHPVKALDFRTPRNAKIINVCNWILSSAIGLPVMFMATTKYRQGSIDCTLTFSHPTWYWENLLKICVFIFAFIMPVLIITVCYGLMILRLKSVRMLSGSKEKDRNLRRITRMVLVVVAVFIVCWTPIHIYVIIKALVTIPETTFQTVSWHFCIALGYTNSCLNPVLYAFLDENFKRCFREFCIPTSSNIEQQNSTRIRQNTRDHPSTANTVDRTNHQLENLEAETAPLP
A short description of test [4]: loss of viability in HepG2 cells – cell-based, CellTiter-Glo, cherry-picked, cytotoxicity control for Shn3 inhibitor project, dose response (AID 624134). Type of test: functional.
In a further test the target is SUMO-activating enzyme (Homo sapiens, UniProt Q9UBT2). Briefly: blockers of SAE1/SAE2–UBC9 SUMO transfer – biochemical, HTRF, uHTS, primary screen (AID 2006). The format is protein-complex assay.
Sequence of SUMO-activating enzyme (Q9UBE0 whole entry): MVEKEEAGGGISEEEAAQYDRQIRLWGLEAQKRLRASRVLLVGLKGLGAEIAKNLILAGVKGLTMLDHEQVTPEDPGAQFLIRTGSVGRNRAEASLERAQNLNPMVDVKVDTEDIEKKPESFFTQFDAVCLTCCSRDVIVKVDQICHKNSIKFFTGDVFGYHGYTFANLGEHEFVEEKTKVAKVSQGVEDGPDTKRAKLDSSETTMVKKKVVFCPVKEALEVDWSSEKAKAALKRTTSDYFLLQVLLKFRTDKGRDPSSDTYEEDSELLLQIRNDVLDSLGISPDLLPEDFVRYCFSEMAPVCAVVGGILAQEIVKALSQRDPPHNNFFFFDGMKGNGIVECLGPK
Sequence of SUMO-activating enzyme (Q9UBT2 whole entry): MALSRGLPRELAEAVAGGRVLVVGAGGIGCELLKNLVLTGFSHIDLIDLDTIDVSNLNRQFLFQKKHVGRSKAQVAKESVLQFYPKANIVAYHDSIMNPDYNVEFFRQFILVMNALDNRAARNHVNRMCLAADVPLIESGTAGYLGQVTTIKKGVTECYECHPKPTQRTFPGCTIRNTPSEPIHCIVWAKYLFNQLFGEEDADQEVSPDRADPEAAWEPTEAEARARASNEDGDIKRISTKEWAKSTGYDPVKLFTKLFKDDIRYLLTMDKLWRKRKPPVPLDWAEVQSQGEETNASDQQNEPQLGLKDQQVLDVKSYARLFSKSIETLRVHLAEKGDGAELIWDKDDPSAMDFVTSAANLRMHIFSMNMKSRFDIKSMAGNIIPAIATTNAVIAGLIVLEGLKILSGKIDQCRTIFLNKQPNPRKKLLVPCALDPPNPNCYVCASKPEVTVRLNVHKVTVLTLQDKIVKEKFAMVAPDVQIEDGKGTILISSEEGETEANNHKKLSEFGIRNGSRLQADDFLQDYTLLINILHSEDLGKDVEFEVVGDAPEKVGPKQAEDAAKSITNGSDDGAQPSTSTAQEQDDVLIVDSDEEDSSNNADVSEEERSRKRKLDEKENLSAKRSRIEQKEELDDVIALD
The nature of test [5]: microbe, parasite or virus in culture. Type of test: functional. To be noted: Mycobacterium tuberculosis.
The target of test [6] is T3, Sphingosine 1-phosphate receptor 4 (Homo sapiens, UniProt O95977).
T3 sequence (O95977 whole entry): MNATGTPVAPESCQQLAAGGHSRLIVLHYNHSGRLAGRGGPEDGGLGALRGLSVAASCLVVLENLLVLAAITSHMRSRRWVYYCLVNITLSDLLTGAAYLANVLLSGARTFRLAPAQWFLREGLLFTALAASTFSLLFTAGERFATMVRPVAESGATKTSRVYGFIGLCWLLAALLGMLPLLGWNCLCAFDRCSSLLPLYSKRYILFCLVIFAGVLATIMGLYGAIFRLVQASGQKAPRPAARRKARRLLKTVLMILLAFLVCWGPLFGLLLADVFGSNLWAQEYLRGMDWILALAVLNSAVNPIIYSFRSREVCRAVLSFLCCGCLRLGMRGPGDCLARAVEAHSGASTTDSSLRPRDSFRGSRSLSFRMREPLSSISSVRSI
Briefly: Fluorescence dose response cell-based high throughput screening assay for antagonists of the Sphingosine 1-Phosphate Receptor 4 (S1P4). [Related pubchem assays: 1524 (Confirmation in triplicates.), 1510 (Primary screen.)]. Type of test: functional.

The target of test [7] is Protein-arginine deiminase type-4 (Homo sapiens, UniProt Q9UM07). Briefly: IC50 against protein arginine deiminase 4 – biochemical, fluorescence readout, dose response (AID 492970).
Sequence of Protein-arginine deiminase type-4 (Q9UM07 whole entry, the tested form may be a part): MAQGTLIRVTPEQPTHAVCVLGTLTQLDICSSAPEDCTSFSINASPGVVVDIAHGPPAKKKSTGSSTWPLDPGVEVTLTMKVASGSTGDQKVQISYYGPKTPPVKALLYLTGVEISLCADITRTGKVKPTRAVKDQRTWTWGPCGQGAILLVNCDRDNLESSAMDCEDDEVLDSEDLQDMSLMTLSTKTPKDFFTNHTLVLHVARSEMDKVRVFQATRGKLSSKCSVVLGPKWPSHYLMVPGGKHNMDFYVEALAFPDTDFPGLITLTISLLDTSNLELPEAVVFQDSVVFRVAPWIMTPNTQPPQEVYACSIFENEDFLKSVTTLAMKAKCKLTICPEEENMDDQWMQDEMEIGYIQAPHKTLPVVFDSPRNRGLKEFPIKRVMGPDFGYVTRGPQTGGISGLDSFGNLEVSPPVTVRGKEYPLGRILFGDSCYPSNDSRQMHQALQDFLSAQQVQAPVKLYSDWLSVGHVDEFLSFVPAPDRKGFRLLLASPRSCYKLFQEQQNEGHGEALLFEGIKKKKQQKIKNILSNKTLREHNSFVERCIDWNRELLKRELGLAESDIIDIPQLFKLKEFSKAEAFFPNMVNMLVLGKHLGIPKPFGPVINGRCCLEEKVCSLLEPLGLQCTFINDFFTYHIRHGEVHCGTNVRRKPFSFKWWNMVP
Test [8] can be described thus: blockers of HIV-1 envelope-mediated cell-cell fusion – cherry-pick, dose response (AID 652057). The format is functional, cell-based.
The target in test [9] is 1-phosphatidylinositol 4,5-bisphosphate phosphodiesterase gamma-1 (Homo sapiens, UniProt P19174). Briefly: Counterscreen for inhibitors of phospholipase C isozymes (PLC-B3): Fluorescence-based biochemical high throughput dose response assay to identify inhibitors of phospholipase C isozymes (PLC-gamma1).
Sequence of 1-phosphatidylinositol 4,5-bisphosphate phosphodiesterase gamma-1 (P19174 whole entry): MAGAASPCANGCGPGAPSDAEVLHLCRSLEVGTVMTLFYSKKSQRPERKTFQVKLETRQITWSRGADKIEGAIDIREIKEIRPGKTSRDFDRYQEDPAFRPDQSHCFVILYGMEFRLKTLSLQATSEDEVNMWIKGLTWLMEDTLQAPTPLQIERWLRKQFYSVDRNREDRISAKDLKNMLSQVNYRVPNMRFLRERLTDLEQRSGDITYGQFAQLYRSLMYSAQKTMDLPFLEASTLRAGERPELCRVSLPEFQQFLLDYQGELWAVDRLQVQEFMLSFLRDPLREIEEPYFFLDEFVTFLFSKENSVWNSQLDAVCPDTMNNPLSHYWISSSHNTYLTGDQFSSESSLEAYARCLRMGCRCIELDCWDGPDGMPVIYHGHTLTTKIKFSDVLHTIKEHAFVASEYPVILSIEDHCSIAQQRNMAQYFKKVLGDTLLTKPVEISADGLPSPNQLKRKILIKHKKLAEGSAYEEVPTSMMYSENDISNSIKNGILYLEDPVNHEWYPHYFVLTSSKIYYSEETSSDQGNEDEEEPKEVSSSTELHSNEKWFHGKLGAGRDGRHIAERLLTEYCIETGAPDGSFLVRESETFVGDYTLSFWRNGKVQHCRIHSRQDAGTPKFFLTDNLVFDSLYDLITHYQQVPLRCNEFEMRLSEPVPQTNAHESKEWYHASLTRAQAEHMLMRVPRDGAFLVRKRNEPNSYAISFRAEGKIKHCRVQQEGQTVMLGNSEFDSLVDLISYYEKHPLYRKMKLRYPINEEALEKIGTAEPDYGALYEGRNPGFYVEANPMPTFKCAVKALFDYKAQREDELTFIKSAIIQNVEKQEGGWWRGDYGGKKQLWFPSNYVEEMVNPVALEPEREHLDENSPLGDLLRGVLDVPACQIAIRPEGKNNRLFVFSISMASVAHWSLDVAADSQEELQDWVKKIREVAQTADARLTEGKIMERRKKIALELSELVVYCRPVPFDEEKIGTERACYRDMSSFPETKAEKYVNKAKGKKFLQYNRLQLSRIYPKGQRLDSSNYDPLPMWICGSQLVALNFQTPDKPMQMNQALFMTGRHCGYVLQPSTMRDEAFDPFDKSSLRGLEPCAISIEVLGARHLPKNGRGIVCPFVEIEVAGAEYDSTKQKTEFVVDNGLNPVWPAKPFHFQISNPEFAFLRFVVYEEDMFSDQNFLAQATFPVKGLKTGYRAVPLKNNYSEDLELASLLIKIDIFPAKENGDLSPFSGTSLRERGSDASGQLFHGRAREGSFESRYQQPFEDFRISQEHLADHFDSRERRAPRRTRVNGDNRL

Structures are written as SMILES. Calls of active or inactive are those of the source.

Regarding `O=C1c2cc(F)ccc2-n2c1nc1ccccc1c2=O`, the IC50 in test [1] was 67.7 µM (active); in test [2] it was 0.985 µM (active).
`O=C1C=C(N(CCO)Cc2ccccc2)c2ccccc2C1=O`: in test [3], the EC50 is > 100 µM (active).
As to `CCC(=O)OCCNc1cc(Sc2nccn2C)c2nonc2c1[N+](=O)[O-]`, on Mu-type opioid receptor, the EC50 was > 32 µM (inactive). Besides, the AC50 in test [4] was 16.1 µM (active).
Take `CCCCn1c(NC(=O)c2ccccc2Cl)c(C#N)c2nc3ccccc3nc21`: the IC50 at SUMO-activating enzyme is 2.82 µM (active).
`O=C1C(=O)c2ccccc2-c2ccccc21` [9,10-PHENANTHRENEQUINONE]: the CC50 in test [5] is 2.33 µM (active). The figures for the IC50 in test [6], in test [7] and in test [9] were 2.03 µM (active), 16 µM (inactive) and 6.37 µM (active), respectively. In addition, the AC50 in test [8] was 4.53 µM (active).

For the origin of these results see ChEMBL document CHEMBL1201862, “PubChem BioAssay data set” (2004).
